Assay results taken from ChEMBL document CHEMBL1148480, “Structure-activity studies of orexin a and orexin B at the human orexin 1 and orexin 2 receptors led to orexin 2 receptor selective and orexin 1 receptor preferring ligands” (J Med Chem, 2004).
pEC50: −log10 of the molar value. Non-standard residues stand in square brackets, D forms with d. Residues, ends and D or L forms follow the SMILES beside them. pGlu = O=C1CC[C@@H](C(=O)O)N1; Ahx = NCCCCCC(=O)O

What follows are compounds tested against T1, Orexin/Hypocretin receptor type 1 (Homo sapiens, UniProt O43613) (assay: Effective agonist concentration to human orexin receptor type 1 determined using the Xlfit program).
T1 sequence (O43613 whole entry): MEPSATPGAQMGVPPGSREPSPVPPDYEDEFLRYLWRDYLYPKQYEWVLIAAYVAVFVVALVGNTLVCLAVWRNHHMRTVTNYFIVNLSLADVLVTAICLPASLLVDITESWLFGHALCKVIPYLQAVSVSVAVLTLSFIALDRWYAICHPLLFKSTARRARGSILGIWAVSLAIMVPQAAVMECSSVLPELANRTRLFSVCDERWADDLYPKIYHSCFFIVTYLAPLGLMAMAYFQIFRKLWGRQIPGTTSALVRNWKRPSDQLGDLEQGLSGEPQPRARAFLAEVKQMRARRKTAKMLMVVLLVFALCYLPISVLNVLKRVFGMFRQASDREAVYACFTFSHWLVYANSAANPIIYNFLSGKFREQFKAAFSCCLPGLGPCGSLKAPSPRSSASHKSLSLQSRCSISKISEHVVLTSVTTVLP
Format: functional
A pEC50 of under 3.00 was found for `CC[C@H](C)[C@H](NC(=O)CNC(=O)[C@H](C)NC(=O)[C@H](C)NC(=O)[C@H](Cc1cnc[nH]1)NC(=O)[C@H](CC(N)=O)NC(=O)CNC(=O)[C@H](CO)NC(=O)[C@H](C)NC(=O)[C@H](CCC(N)=O)NC(=O)[C@H](CC(C)C)NC(=O)[C@@H](N)CC(C)C)C(=O)N[C@@H](CC(C)C)C(=O)N[C@H](C(=O)N[C@@H](CCSC)C(N)=O)[C@@H](C)O` (H-LLQASGNHAAGILTM-NH2) in this work. A pEC50 of 5.79 was found for `CC[C@H](C)[C@H](NC(=O)CNC(=O)[C@H](C)NC(=O)[C@H](C)NC(=O)[C@H](Cc1cnc[nH]1)NC(=O)[C@H](CC(N)=O)NC(=O)CNC(=O)[C@H](CO)NC(=O)[C@H](C)NC(=O)[C@H](CCC(N)=O)NC(=O)[C@H](CC(C)C)NC(=O)[C@H](CC(C)C)NC(=O)[C@H](CCCNC(=N)N)NC(=O)[C@H](CCC(N)=O)NC(=O)[C@H](CC(C)C)NC(=O)[C@H](CCCNC(=N)N)NC(=O)CNC(=O)[C@H](C)NC(=O)[C@H](CC(C)C)NC(=O)CN)C(=O)N[C@@H](CC(C)C)C(=O)N[C@H](C(=O)N[C@@H](CCSC)C(N)=O)[C@@H](C)O` (H-GLAGRLQRLLQASGNHAAGILTM-NH2) in this work. A pEC50 of 5.36 was found for `CC[C@H](C)[C@H](NC(=O)CNC(=O)[C@H](C)NC(=O)[C@H](C)NC(=O)[C@H](Cc1cnc[nH]1)NC(=O)[C@H](CC(N)=O)NC(=O)CNC(=O)[C@H](CO)NC(=O)[C@H](C)NC(=O)[C@H](CCC(N)=O)NC(=O)[C@H](CC(C)C)NC(=O)[C@H](CC(C)C)NC(=O)[C@H](C)NC(=O)[C@H](CCC(N)=O)NC(=O)[C@H](CC(C)C)NC(=O)[C@H](CCCNC(=N)N)NC(=O)CNC(=O)[C@H](CCC(N)=O)NC(=O)[C@H](CC(C)C)NC(=O)CN)C(=O)N[C@@H](CC(C)C)C(=O)N[C@H](C(=O)N[C@@H](CCSC)C(=O)O)[C@@H](C)O` (H-GLQGRLQALLQASGNHAAGILTM-OH) in this work. A pEC50 of 6.09 was found for `CC[C@H](C)[C@H](NC(=O)CNC(=O)[C@H](C)NC(=O)[C@H](C)NC(=O)[C@H](Cc1c[nH]cn1)NC(=O)[C@H](CC(N)=O)NC(=O)CNC(=O)[C@H](C)NC(=O)CNC(=O)[C@H](Cc1c[nH]cn1)NC(=O)[C@H](CC(C)C)NC(=O)[C@H](CC(C)C)NC(=O)[C@H](CCC(=O)O)NC(=O)[C@H](Cc1ccc(O)cc1)NC(=O)[C@H](CC(C)C)NC(=O)[C@H](CCCN=C(N)N)NC(=O)[C@H](CS)NC(=O)[C@H](CO)NC(=O)[C@H](CS)NC(=O)[C@@H](NC(=O)[C@H](CCCCN)NC(=O)[C@H](CCC(N)=O)NC(=O)[C@H](CCCN=C(N)N)NC(=O)[C@H](CS)NC(=O)[C@@H](N)CS)[C@@H](C)O)C(=O)N[C@@H](CC(C)C)C(=O)N[C@H](C(=O)N[C@@H](CC(C)C)C(N)=O)[C@@H](C)O` (H-CCRQKTCSCRLYELLHGAGNHAAGILTL-NH2) in this work. A pEC50 of 4.65 was found for `CC[C@H](C)[C@H](NC(=O)CNC(=O)[C@H](C)NC(=O)[C@H](C)NC(=O)[C@H](Cc1cnc[nH]1)NC(=O)[C@H](CC(N)=O)NC(=O)CNC(=O)[C@H](CO)NC(=O)[C@H](C)NC(=O)[C@H](CCC(N)=O)NC(=O)[C@H](CC(C)C)NC(=O)[C@H](CC(C)C)NC(=O)[C@H](CCCNC(=N)N)NC(=O)[C@H](CCC(N)=O)NC(=O)[C@H](CC(C)C)NC(=O)[C@H](CCCNC(=N)N)NC(=O)CNC(=O)[C@@H](N)CCC(N)=O)C(=O)N[C@@H](CC(C)C)C(=O)N[C@H](C(=O)N[C@@H](CCSC)C(N)=O)[C@@H](C)O` (H-QGRLQRLLQASGNHAAGILTM-NH2) in this work. A pEC50 of 5.84 was found for `CC[C@H](C)[C@H](NC(=O)CNC(=O)[C@H](C)NC(=O)[C@H](C)NC(=O)[C@H](Cc1c[nH]cn1)NC(=O)[C@H](CC(N)=O)NC(=O)CNC(=O)[C@H](C)NC(=O)[C@H](C)NC(=O)[C@H](CCC(N)=O)NC(=O)[C@H](CC(C)C)NC(=O)[C@H](CC(C)C)NC(=O)[C@H](CCCN=C(N)N)NC(=O)[C@H](CCC(N)=O)NC(=O)[C@H](CC(C)C)NC(=O)[C@H](CCCN=C(N)N)NC(=O)CNC(=O)[C@H](CCC(N)=O)NC(=O)[C@H](CC(C)C)NC(=O)CN)C(=O)N[C@@H](CC(C)C)C(=O)N[C@H](C(=O)N[C@@H](CCSC)C(=O)O)[C@@H](C)O` (H-GLQGRLQRLLQAAGNHAAGILTM-OH) in this work. A pEC50 of under 3.00 was found for `CC[C@H](C)[C@H](NC(=O)CNC(=O)[C@H](C)NC(=O)[C@H](C)NC(=O)[C@@H](N)Cc1cnc[nH]1)C(=O)N[C@@H](CC(C)C)C(=O)N[C@H](C(=O)N[C@@H](CC(C)C)C(N)=O)[C@@H](C)O` (H-HAAGILTL-NH2) in this work. A pEC50 of under 3.00 was found for `CC[C@H](C)[C@H](NC(=O)CNC(=O)[C@H](C)NC(=O)[C@H](C)NC(=O)[C@H](Cc1cnc[nH]1)NC(=O)[C@H](CC(N)=O)NC(=O)CNC(=O)[C@H](CO)NC(=O)[C@H](C)NC(=O)[C@H](CCC(N)=O)NC(=O)[C@H](CC(C)C)NC(=O)[C@H](CC(C)C)NC(=O)[C@H](CCCNC(=N)N)NC(=O)[C@H](CCC(N)=O)NC(=O)[C@@H]1CCCN1C(=O)[C@H](CCCNC(=N)N)NC(=O)CNC(=O)[C@H](CCC(N)=O)NC(=O)[C@H](CC(C)C)NC(=O)CN)C(=O)N[C@@H](CC(C)C)C(=O)N[C@H](C(=O)N[C@@H](CCSC)C(N)=O)[C@@H](C)O` (H-GLQGRPQRLLQASGNHAAGILTM-NH2) in this work. A pEC50 of 6.19 was found for `CC[C@H](C)[C@H](NC(=O)CNC(=O)[C@H](C)NC(=O)[C@H](C)NC(=O)[C@H](Cc1c[nH]cn1)NC(=O)[C@H](CC(N)=O)NC(=O)CNC(=O)[C@H](C)NC(=O)CNC(=O)[C@H](Cc1c[nH]cn1)NC(=O)[C@H](CC(C)C)NC(=O)[C@H](CC(C)C)NC(=O)[C@H](CCC(=O)O)NC(=O)[C@H](Cc1ccc(O)cc1)NC(=O)[C@H](CC(C)C)NC(=O)[C@H](CCCN=C(N)N)NC(=O)[C@H](CS)NC(=O)[C@H](CO)NC(=O)[C@H](CS)NC(=O)[C@@H](NC(=O)[C@H](CCCCN)NC(=O)[C@H](CCC(N)=O)NC(=O)[C@H](CCCN=C(N)N)NC(=O)[C@H](CS)NC(=O)[C@H](CS)NC(=O)[C@H](CC(=O)O)NC(=O)[C@@H]1CCCN1)[C@@H](C)O)C(=O)N[C@@H](CC(C)C)C(=O)N[C@H](C(=O)N[C@@H](CC(C)C)C(N)=O)[C@@H](C)O` (H-PDCCRQKTCSCRLYELLHGAGNHAAGILTL-NH2) in this work. A pEC50 of under 3.00 was found for `CC[C@H](C)[C@H](NC(=O)CNC(=O)[C@H](C)NC(=O)[C@H](C)NC(=O)[C@H](Cc1c[nH]cn1)NC(=O)[C@H](CC(N)=O)NC(=O)CNC(=O)[C@H](CO)NC(=O)[C@H](C)NC(=O)[C@H](CCC(N)=O)NC(=O)[C@H](CC(C)C)NC(=O)[C@@H]1CCCN1C(=O)[C@H](CCCN=C(N)N)NC(=O)[C@H](CCC(N)=O)NC(=O)[C@H](CC(C)C)NC(=O)[C@H](CCCN=C(N)N)NC(=O)CNC(=O)[C@H](CCC(N)=O)NC(=O)[C@H](CC(C)C)NC(=O)CN)C(=O)N[C@@H](CC(C)C)C(=O)N[C@H](C(=O)N[C@@H](CCSC)C(N)=O)[C@@H](C)O` (H-GLQGRLQRPLQASGNHAAGILTM-NH2) in this work. A pEC50 of 5.77 was found for `CC[C@H](C)[C@H](NC(=O)CNC(=O)[C@H](C)NC(=O)[C@H](C)NC(=O)[C@H](Cc1cnc[nH]1)NC(=O)[C@H](CC(N)=O)NC(=O)CNC(=O)[C@H](CO)NC(=O)[C@H](C)NC(=O)[C@H](CCC(N)=O)NC(=O)[C@H](CC(C)C)NC(=O)[C@H](CC(C)C)NC(=O)[C@H](CCCNC(=N)N)NC(=O)[C@H](CCC(N)=O)NC(=O)[C@H](CC(C)C)NC(=O)[C@H](CCCNC(=N)N)NC(=O)CNC(=O)[C@H](CCC(N)=O)NC(=O)[C@@H]1CCCN1C(=O)CN)C(=O)N[C@@H](CC(C)C)C(=O)N[C@H](C(=O)N[C@@H](CCSC)C(N)=O)[C@@H](C)O` (H-GPQGRLQRLLQASGNHAAGILTM-NH2) in this work. A pEC50 of 5.92 was found for `CC[C@H](C)[C@H](NC(=O)CNC(=O)[C@H](C)NC(=O)[C@H](C)NC(=O)[C@H](Cc1c[nH]cn1)NC(=O)[C@H](CC(N)=O)NC(=O)CNC(=O)[C@H](CO)NC(=O)[C@H](C)NC(=O)[C@H](CCC(N)=O)NC(=O)[C@H](CC(C)C)NC(=O)[C@H](CC(C)C)NC(=O)[C@H](CCCN=C(N)N)NC(=O)[C@H](CCC(N)=O)NC(=O)[C@H](CC(C)C)NC(=O)[C@H](CCCN=C(N)N)NC(=O)CNC(=O)[C@@H]1CCCN1C(=O)[C@H](CC(C)C)NC(=O)CN)C(=O)N[C@@H](CC(C)C)C(=O)N[C@H](C(=O)N[C@@H](CCSC)C(N)=O)[C@@H](C)O` (H-GLPGRLQRLLQASGNHAAGILTM-NH2) in this work. A pEC50 of 5.28 was found for `CC[C@H](C)[C@H](NC(=O)CNC(=O)[C@H](C)NC(=O)[C@H](C)NC(=O)[C@H](Cc1c[nH]cn1)NC(=O)[C@H](CC(N)=O)NC(=O)CNC(=O)[C@H](CO)NC(=O)[C@H](C)NC(=O)[C@H](CCC(N)=O)NC(=O)[C@H](CC(C)C)NC(=O)[C@H](CC(C)C)NC(=O)[C@H](CCCN=C(N)N)NC(=O)[C@@H]1CCCN1C(=O)[C@H](CC(C)C)NC(=O)[C@H](CCCN=C(N)N)NC(=O)CNC(=O)[C@H](CCC(N)=O)NC(=O)[C@H](CC(C)C)NC(=O)CN)C(=O)N[C@@H](CC(C)C)C(=O)N[C@H](C(=O)N[C@@H](CCSC)C(N)=O)[C@@H](C)O` (stereo in doubt; form 1) in this work. A pEC50 of 5.26 was found for `CC[C@H](C)[C@H](NC(=O)CNC(=O)[C@H](C)NC(=O)[C@H](C)NC(=O)[C@H](Cc1cnc[nH]1)NC(=O)[C@H](CC(N)=O)NC(=O)CNC(=O)[C@H](C)NC(=O)CNC(=O)[C@H](Cc1cnc[nH]1)NC(=O)[C@H](CC(C)C)NC(=O)[C@H](CC(C)C)NC(=O)[C@H](CCC(=O)O)NC(=O)[C@H](Cc1ccc(O)cc1)NC(=O)[C@H](CC(C)C)NC(=O)[C@H](CCCNC(=N)N)NC(=O)CCCCCNC(=O)[C@H](CC(=O)O)NC(=O)[C@@H]1CCCN1C(=O)[C@H](CC(C)C)NC(=O)[C@@H]1CCCN1C(=O)[C@@H]1CCC(=O)N1)C(=O)N[C@@H](CC(C)C)C(=O)N[C@H](C(=O)N[C@@H](CC(C)C)C(=O)O)[C@@H](C)O` ([pGlu]PLPD[Ahx]RLYELLHGAGNHAAGILTL-OH) in this work.
